Measurements taken from patent publication US8742113B2, “Furanone derivative” (SBI Biotech Co., Ltd., priority 2011, dated 2014).

What was measured:
[1] = target: human Cdc7/human ASK complex protein (Homo sapiens (Human), UniProt O00311); assay: Inhibitory effect on Cdc7 protein kinase (MSA assay kit); assay type: biochemical; settings: human Cdc7/human ASK complex, FITC-labeled MCM2 peptide substrate, reaction 5 hours at room temperature; read-out: Test Example 1 Cdc7 IC50 value
Experimental: [Inhibitory Effect on Cdc7 Protein Kinase]
Measurement of kinase activity was carried out using an MSA assay kit (QuickScout Screening Assist™ Kit, Carna Biosciences, Inc.).
Assay buffer (20 mM HEPES, 0.01% Triton X-100™, 2 mM dithiothreitol, pH 7.5) was used to prepare a substrate mixture solution comprising 4 μM of a kinase-reaction substrate (FITC-labeled MCM2 peptide), 40 mM MgCl2, and 20 μM ATP.
The enzyme supplied in the kit (human Cdc7/human ASK complex protein) was diluted in the assay buffer so as to be at 7 nM, thereby preparing an enzyme solution.
The stock solution of each test compound was diluted in DMSO to prepare diluted DMSO solutions of 10 concentrations (0.00003 mM, 0.0001 mM, 0.0003 mM, 0.001 mM, 0.003 mM, 0.01 mM, 0.03 mM, 0.1 mM, 0.3 mM, 1 mM), each of which was further diluted 25 times in the assay buffer to make a drug solution (a solution containing 4% DMSO).
The kinase reaction was performed in wells of a polypropylene 384-well plate in which 5 μl of each of the drug solutions or of a solvent (assay buffer containing 4% DMSO), 5 μl of the substrate mixture solution, and 10 μl of the enzyme solution were mixed. The assay buffer, instead of the enzyme solution, was added to blank wells. After the reaction at room temperature for 5 hours, 60 μl of the termination buffer supplied in the kit was added to each well to stop the reaction. The percent inhibition of each reaction was determined using a LabChip EZ Reader II system (manufactured by Caliper Life Sciences), according to the protocol provided with the assay kit. In this case, the peak heights of the separated substrate and the phosphorylated substrate were represented as S and P, respectively, and the percent inhibition (%) by a tested compound was calculated according to the following formula: Percent inhibition(%)=(1−(C−A)/(B−A))×100 wherein A denotes P/(P+S) for a blank well, B denotes P/(P+S) for a solvent well, and C denotes P/(P+S) for a compound-added well.
The IC50 value of a tested compound was calculated by regression analysis of the percent inhibition values versus the (logarithmic) concentrations of the tested compound.

[2] = test system: MCM2 phosphorylation in COLO205 cells; assay: Inhibitory effect on MCM2 phosphorylation using cells (Western blot); assay type: cell-based; settings: Homo sapiens, COLO 205, 0.1 μM test compound, 24 hours, class by percent phosphorylation of MCM2, read-out: Test Example 2 Inhibitory effect on MCM2 phosphorylation
Experimental: [Inhibitory Effect on Phosphorylation Using Cells]
COLO205 cells derived from human colon adenocarcinoma (RCB2127, RIKEN BRC) were cultured in 10 cm dishes using RPMI-1640 medium (SIGMA, R8758) supplemented with 10% FCS (Equitech-bio) and 5% penicillin/streptomycin (GIBCO, 15140). After the cells were cultured to a confluence of 70 to 90%, the medium was removed, and the cells were treated with trypsin (2 mL, TrypLE Express, GIBCO, 12604-021) and then harvested using a new medium.
COLO205 cells were seeded in 6-well plates (FALCON, 35046) to 2.5×10^5 cells (1 ml) per well and cultured overnight in a 5% CO2 incubator. A drug solution, which was prepared by adding 1.5 μl of a 0.1-mM stock solution in DMSO of a test compound to 500 μl of medium, was added to each well (to a final drug concentration of 0.1 μM), and then cultured for another 24 hours.
Cells were cultured for 24 hours in the presence of a test compound, harvested using a similar way as described above, washed with PBS, and then pelletized and stored at −80° C. The frozen cells were thawed, subsequently suspended immediately in 2×SDS-PAGE electrophoresis buffer (1×10^5 cells per 10 μl), and heated at 95° C. for 10 minutes, leading to the dissolution and denaturation of the proteins. The resulting sample solutions were subjected to SDS-PAGE using a 5-20% gradient acrylamide gel (e-PAGEL (5-20%), ATTO, E-T520L). After the electrophoresis was completed, the gel was immersed in tris-glycine buffer supplemented with 20% methanol, and the proteins in the gel were transferred onto a PVDF membrane (MILLIPORE, Immobilon-P, IPVH00010) using a semi-dry transfer apparatus (TRNS-BLOT SD SEMI-DRY […] CELL, BIO RAD).
The transferred PVDF membrane was blocked with 5% skim milk (Difco Skim Milk, BD, 232100), and then subjected to reaction with an anti-MCM2 goat antibody (N-19, Santa Cruz, sc-9839) or anti-phosphorylated MCM2 rabbit antibody (S53) (Bethyl, A300-756A) as a primary antibody and additionally with an anti-α tubulin mouse antibody (Clone DM 1A, SIGMA, 9026) as an internal control. Each band was detected by chemiluminescence using an HRP-labeled anti-goat IgG donkey antibody (Santa Cruz, sc2020), anti-rabbit IgG sheep antibody (Roche, 12015218001), or anti-mouse IgG donkey antibody (Jackson ImmunoResearch, 715-035-151) as a secondary antibody. The combinations of and the diluted concentrations of the primary and secondary antibodies were as indicated below.
The bands which were detected were normalized using the amount of endogenous α-tubulin as a reference, and the percent phosphorylation of MCM2 was calculated for each of the tested compounds. Their inhibitory effects on MCM2 phosphorylation were indicated by a triple asterisk (***) in the case where the percent phosphorylation of MCM2 was less than 20%, by a dual asterisk (**) in the case where the percent phosphorylation of MCM2 was not less than 20% and less than 50%, and by a single asterisk (*) in the case where the percent phosphorylation of MCM2 was not less than 50% and less than 70%.

Sequence of human Cdc7/human ASK complex protein (O00311 whole entry): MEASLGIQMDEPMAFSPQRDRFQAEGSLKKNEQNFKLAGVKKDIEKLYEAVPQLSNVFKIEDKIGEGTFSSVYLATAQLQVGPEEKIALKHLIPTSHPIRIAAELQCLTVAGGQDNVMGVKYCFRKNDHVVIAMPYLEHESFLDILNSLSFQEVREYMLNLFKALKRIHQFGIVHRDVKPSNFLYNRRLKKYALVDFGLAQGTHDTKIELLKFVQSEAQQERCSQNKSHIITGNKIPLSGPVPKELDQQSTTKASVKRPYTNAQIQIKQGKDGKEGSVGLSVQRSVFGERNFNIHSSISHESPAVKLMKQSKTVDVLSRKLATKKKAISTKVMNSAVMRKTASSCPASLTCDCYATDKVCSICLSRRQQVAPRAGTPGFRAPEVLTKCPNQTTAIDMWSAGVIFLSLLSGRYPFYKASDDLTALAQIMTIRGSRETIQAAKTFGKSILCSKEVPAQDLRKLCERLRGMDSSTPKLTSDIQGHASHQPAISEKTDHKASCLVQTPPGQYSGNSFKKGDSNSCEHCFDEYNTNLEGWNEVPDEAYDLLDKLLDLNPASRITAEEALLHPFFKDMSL
Sequence of human Cdc7/human ASK complex protein (Q9UBU7 whole entry partner): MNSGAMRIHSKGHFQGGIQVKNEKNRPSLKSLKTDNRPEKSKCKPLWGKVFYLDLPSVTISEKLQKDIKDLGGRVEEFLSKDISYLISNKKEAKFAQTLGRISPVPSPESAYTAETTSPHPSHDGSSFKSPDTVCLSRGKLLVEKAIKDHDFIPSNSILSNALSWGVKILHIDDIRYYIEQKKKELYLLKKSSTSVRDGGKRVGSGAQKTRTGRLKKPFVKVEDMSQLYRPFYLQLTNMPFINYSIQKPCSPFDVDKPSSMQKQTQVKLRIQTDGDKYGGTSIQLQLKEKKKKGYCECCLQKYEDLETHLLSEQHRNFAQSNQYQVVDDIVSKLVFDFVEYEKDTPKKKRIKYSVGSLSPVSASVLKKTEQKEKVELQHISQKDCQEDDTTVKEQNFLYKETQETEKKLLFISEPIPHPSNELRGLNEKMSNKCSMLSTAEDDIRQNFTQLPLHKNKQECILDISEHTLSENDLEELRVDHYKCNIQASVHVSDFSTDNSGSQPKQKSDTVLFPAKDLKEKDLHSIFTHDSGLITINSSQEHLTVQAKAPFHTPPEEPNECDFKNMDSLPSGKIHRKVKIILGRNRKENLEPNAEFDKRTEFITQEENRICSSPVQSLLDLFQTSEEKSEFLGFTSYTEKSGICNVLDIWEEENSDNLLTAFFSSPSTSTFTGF

`CC(C)OC(=O)C1=C(NN2CCOCC2)O/C(=C\c2c[nH]c3ncccc23)C1=O` [Example 245, Isopropyl 5-[(1H-pyrrolo[2,3-b]pyridin-3-yl)methylene]-2-(morpholinoamino)-4-oxo-4,5-dihydrofuran-3-carboxylate] showed an IC50 [1] of 8 nM and an inhibition at 0.1 µM [2] of less than 20%.
With `CCOC(=O)C1=C(NN2CCN(CC(F)(F)F)CC2)O/C(=C\c2c[nH]c3ncccc23)C1=O` [Example 246, Ethyl 5-[(1H-pyrrolo[2,3-b]pyridin-3-yl)methylene]-4-oxo-2-{[4-(2,2,2-trifluoroethyl)piperazinyl]amino}-4,5-dihydrofuran-3-carboxylate] the IC50 [1] was 8 nM and the inhibition at 0.1 µM [2] was less than 20%.
